According to US6057135A, “Process for manufacturing D-tagatose” (Kraft Foods, Inc., priority 1992, dated 2000):

Legend:
L-arabinose isomerase [1] = target: T1, L-arabinose isomerase (Lactiplantibacillus pentosus, UniProt Q6UA74); assay: L-arabinose isomerase activity assay (cysteine-carbazole ketose determination), enzyme from Lactobacillus pentosus ATCC 8041; format: biochemical; conditions: for % Activity with activator (None = 100): metal ion activator, bioconversion of D-galactose; for Enzyme Activity: 10 minutes, 0.1 M L-arabinose or 0.2 M D-galactose as substrate; for total activity, Present Invention Data / activity (10 min.), Present Invention Data: substrate as labelled, propagation 24 hours, 37° C., pH 6.5, BYF 100 medium; for activity (10 min.), Present Invention Data: per g cell mass
T1 construct: whole cells, sonicated cell-free extract or immobilized, from L-arabinose-induced culture
T1 sequence (Q6UA74 1-474): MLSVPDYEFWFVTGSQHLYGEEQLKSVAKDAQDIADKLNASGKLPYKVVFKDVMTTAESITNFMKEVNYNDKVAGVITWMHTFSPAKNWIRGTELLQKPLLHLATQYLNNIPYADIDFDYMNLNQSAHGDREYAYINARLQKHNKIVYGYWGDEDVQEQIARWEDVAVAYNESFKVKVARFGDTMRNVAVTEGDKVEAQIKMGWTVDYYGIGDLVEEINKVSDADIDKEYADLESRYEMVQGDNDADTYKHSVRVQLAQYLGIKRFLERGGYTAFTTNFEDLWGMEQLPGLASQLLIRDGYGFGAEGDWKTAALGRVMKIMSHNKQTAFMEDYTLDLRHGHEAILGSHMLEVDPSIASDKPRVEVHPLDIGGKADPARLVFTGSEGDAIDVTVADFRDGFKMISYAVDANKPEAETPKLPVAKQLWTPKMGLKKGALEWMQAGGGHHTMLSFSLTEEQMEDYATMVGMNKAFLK
Protocol: The activity of L-arabinose isomerase can be assayed based on the appearance of keto-pentose (L-ribulose) or keto-hexose (D-tagatose) after incubation in the presence of the substrate aldo-pentose (L-arabinose) or aldo-hexose (D-galactose), respectively. The keto-pentose or keto-hexose can be measured colorimetrically utilizing cysteine-carbazole sulfuric acid as a reagent. The cysteine-carbazole method is described in, Zacharias Dische, "Color Reaction of Ketoses with Carbazole and Sulfuric Acid", Methods in Carbohydrate Chemistry (1962) page 481 [132]. Samples should be analyzed in duplicate, utilizing one sample as a blank to correct for substances which may interfere with the calorimetric ketose determination.
For purposes of this specification, one unit of L-arabinose isomerase activity is defined as that amount of enzyme which is required to produce one micromole of L-ribulose or D-tagatose from the respective substrates, L-arabinose or D-galactose, following ten minutes of incubation under assay conditions.
Following 24 hours of propagation, the cell mass was harvested and washed with a phosphate or maleate buffer at pH 6.5. The L-arabinose isomerase was extracted from the harvested cells by sonication.
To 1.0 ml of the bioconversion reaction medium (using a dilution factor if needed) the following is added:
0.2 ml of cystein hydrochloride (1.5% in water);
6.0 ml 75% sulfuric acid (450 ml conc. sulfuric acid+190 ml water); and
0.2 ml of 0.12% alcohol solution of carbazole (0.12 gram carbazole in 100 ml 95% ethanol).
The test tubes are incubated for 10 minutes at 57° C. and optical density (O.D.) is read at 540. The D-galactose substrate is used as a blank for reference.
A series of bioconversions were conducted with varied parameters to determine optimum conditions for Lactobacillus pentosus L-arabinose isomerase.

L-arabinose isomerase [2] = target: T2, L-arabinose isomerase (Bacillus amyloliquefaciens, UniProt A0A9P1JJ98); assay: L-arabinose isomerase bioconversion of D-galactose to D-tagatose, enzyme from Bacillus amyloliquefaciens IFO 3022; format: biochemical; conditions: for D-TAGATOSE / O.D. (X - B): 1.67 M D-galactose, 60° C., 120 min.
T2 construct: crude enzyme
T2 sequence (A0A9P1JJ98 1-499): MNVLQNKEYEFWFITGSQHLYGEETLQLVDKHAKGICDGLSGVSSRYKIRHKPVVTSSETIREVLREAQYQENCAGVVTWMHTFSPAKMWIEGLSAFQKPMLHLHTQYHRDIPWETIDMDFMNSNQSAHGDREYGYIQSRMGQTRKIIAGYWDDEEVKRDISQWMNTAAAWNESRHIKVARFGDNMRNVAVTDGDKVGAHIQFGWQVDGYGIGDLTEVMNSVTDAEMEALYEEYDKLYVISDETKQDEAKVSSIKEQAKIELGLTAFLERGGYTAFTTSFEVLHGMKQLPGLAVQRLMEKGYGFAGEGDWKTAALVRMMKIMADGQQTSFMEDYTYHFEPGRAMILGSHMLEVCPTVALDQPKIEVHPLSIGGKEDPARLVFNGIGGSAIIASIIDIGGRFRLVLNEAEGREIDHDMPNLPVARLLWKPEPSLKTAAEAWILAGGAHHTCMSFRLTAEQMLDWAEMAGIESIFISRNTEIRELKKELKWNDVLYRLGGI
Protocol: Bacillus amyloliquefaciens (previously known as Bacillus subtilis, IFO 3022, was evaluated as a source of L-arabinose isomerase. Cells of the culture were propagated on the same medium as used in Example 1 in the presence of L-arabinose as a carbon source. Optimum pH, temperature, metal ion and metal ion concentration were evaluated as summarized below.
In the following tests, sample B was comprised of 0.8 ml. D-galactose and 0.2 ml. water and sample X was comprised of 0.8 ml. D-galactose an 0.2 ml. enzyme. The dilution factor for the optical density (O.D.) reading was 200×. (The cystein carbazole method was used for the D-tagatose assay.)

L-arabinose isomerase [3] = assay: L-arabinose isomerase bioconversion of D-galactose to D-tagatose, enzyme from Arthrobacter sp. ATCC 21920; format: biochemical; conditions: for D-TAGATOSE / O.D. (X - B): 1.67 M D-galactose, 60° C., 120 min.
Protocol: The cultures were screened based on cell propagation on medium #1 of Example 3 in the presence of L-arabinose as a carbon source.
Cells of Arthrobacter sp. ATCC 21920 were propagated on medium #1 of Example 3 in the presence of L-arabinose as a carbon source. Optimum pH, temperature, metal ion and metal ion concentration were evaluated on the cell extract containing L-arabinose isomerase as summarized below.
In the following tests, sample B was comprised of 0.8 ml. D-galactose and 0.2 ml. water and sample X was comprised of 0.8 ml. D-galactose and 0.2 ml. enzyme. The dilution factor for the optical density (O.D.) reading was 200×.

L-arabinose isomerase [4] = conditions: cited from earlier work; for affinity of the isomerase for the sugar: Yamanaka and Wood, 1966
[5] = test system: L-arabinose-L-ribulose-isomerase; conditions: Simpson, 1958; cited from earlier work
L-arabinose isomerase [6] = target: T3, L-arabinose isomerase (Mycolicibacterium smegmatis, UniProt Q9RHG2); conditions: Izumori et al., 1978; cited from earlier work
T3 construct: L-arabinose isomerases from Mycobacterium smegmatis induced by L-arabinose and D-galactose; host or cells: Mycobacterium smegmatis

[7] = at about 25° C.; cited from earlier work
[8] = 0.005 M metallic ion, O.D. 540, dilution 200×

T3 sequence (Q9RHG2 whole entry): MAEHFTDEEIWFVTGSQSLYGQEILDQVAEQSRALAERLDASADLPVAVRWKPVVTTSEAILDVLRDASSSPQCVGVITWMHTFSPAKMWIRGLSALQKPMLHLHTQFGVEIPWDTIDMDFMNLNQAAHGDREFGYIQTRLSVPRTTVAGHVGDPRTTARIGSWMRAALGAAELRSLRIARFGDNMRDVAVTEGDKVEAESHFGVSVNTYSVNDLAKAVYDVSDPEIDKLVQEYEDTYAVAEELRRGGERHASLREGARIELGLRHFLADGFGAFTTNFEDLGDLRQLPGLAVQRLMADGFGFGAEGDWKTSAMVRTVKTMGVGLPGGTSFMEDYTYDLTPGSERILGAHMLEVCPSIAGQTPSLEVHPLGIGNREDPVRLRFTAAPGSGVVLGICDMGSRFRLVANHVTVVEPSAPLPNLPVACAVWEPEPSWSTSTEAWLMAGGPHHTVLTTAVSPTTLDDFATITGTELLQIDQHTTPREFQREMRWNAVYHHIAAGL

[Ca] [Calcium]
% Activity with activator (None = 100) (L-arabinose isomerase [1]): 143%
D-TAGATOSE (L-arabinose isomerase [2]; 0.005 M metallic ion): 0.009 M
O.D. (X - B) (L-arabinose isomerase [2]; [8]): 0.1802
D-TAGATOSE (L-arabinose isomerase [3]; 0.005 M metallic ion): 0.033 M
O.D. (X - B) (L-arabinose isomerase [3]; [8]): 0.7107

[Co+2] [Cobalt]
% Activity with activator (None = 100) (L-arabinose isomerase [1]): 200%
D-TAGATOSE (L-arabinose isomerase [2]; 0.005 M metallic ion): 0.005 M
O.D. (X - B) (L-arabinose isomerase [2]; [8]): 0.0970
D-TAGATOSE (L-arabinose isomerase [3]; 0.005 M metallic ion): 0.050 M
O.D. (X - B) (L-arabinose isomerase [3]; [8]): 1.0764

C[C@@H](O)[C@H](O)[C@H](O)[C@@H](O)C=O [D-fucose]
affinity of the isomerase for the sugar (L-arabinose isomerase [4]): low affinity

O=C[C@H](O)[C@@H](O)[C@@H](O)[C@H](O)CO [D-galactose]
Enzyme Activity (L-arabinose isomerase [1]; 35° C.): 0.07 u/ml.
Enzyme Activity (L-arabinose isomerase [1]; 60° C.): 0.90 u/ml.
Km (D-galactose), as % (L-arabinose isomerase [1]; crude enzyme, L. pentosus): 20%
total activity, Present Invention Data (L-arabinose isomerase [1]): 395 u/L.
activity (10 min.), Present Invention Data (L-arabinose isomerase [1]): 45 u/g.
Km (D-galactose), as % (L-arabinose isomerase [2]; crude enzyme, B. amylo.): 12%
L-arabinose isomerase activity (L-arabinose isomerase [3]; D-galactose as a substrate, 10 min. incubation): 21 U/g/10 min.
Km (D-galactose), as % (L-arabinose isomerase [3]; crude enzyme, Arthrobacter): 15%
activity of L-arabinose isomerase on the sugar (L-arabinose isomerase [4]; Nakamatu, Biochim. Biophys. Acta 178): slight
affinity of the isomerase for the sugar (L-arabinose isomerase [4]): low affinity
substrate quality for L-arabinose-L-ribulose-isomerase [5]: slow
substrate of the isomerase (L-arabinose isomerase [6]): not a substrate of the isomerase
maximum solubility in water [7]: about 70 % by weight

[Fe+3] [Ferric]
D-TAGATOSE (L-arabinose isomerase [2]; 0.005 M metallic ion): 0.018 M
O.D. (X - B) (L-arabinose isomerase [2]; [8]): 0.3817
D-TAGATOSE (L-arabinose isomerase [3]; 0.005 M metallic ion): 0.037 M
O.D. (X - B) (L-arabinose isomerase [3]; [8]): 0.8003

[Fe+2] [Ferrous]
% Activity with activator (None = 100) (L-arabinose isomerase [1]): 200%
% Activity over activator range (L-arabinose isomerase [1]; range 1 MM-10 MM): 123-250%
D-TAGATOSE (L-arabinose isomerase [2]; 0.005 M metallic ion): 0.020 M
O.D. (X - B) (L-arabinose isomerase [2]; [8]): 0.4438
D-TAGATOSE (L-arabinose isomerase [3]; 0.005 M metallic ion): 0.037 M
O.D. (X - B) (L-arabinose isomerase [3]; [8]): 0.8030

O=C[C@H](O)[C@@H](O)[C@@H](O)CO [L-arabinose, reference compound]
Enzyme Activity (L-arabinose isomerase [1]; 35° C.): 24.6 u/ml.
Enzyme Activity (L-arabinose isomerase [1]; 60° C.): 68.1 u/ml.
total activity, Present Invention Data (L-arabinose isomerase [1]): 4,220 u/L.
activity (10 min.), Present Invention Data (L-arabinose isomerase [1]): 425 u/g.
affinity of the isomerase for the sugar (L-arabinose isomerase [4]): high affinity
total activity, Published Data (L-arabinose isomerase [4]; substrate as labelled, propagation 24 hours, 37° C.): 525 u/L.
activity (10 min.), Published Data (L-arabinose isomerase [4]; substrate as labelled, propagation 24 hours, 37° C., per g cell mass): 350 u/g.

[Mg] [Magnesium]
% Activity with activator (None = 100) (L-arabinose isomerase [1]): 141%
D-TAGATOSE (L-arabinose isomerase [2]; 0.005 M metallic ion): 0.005 M
O.D. (X - B) (L-arabinose isomerase [2]; [8]): 0.1048
D-TAGATOSE (L-arabinose isomerase [3]; 0.005 M metallic ion): 0.036 M
O.D. (X - B) (L-arabinose isomerase [3]; [8]): 0.7890

[Mn+2] [Manganese]
% Activity with activator (None = 100) (L-arabinose isomerase [1]): 177%
D-TAGATOSE (L-arabinose isomerase [2]; 0.005 M metallic ion): 0.035 M
O.D. (X - B) (L-arabinose isomerase [2]; [8]): 0.7610
D-TAGATOSE (L-arabinose isomerase [2]; manganese ion 0.001 M): 0.036 M
O.D. (X - B) (L-arabinose isomerase [2]; manganese ion 0.001 M): 0.7723
D-TAGATOSE (L-arabinose isomerase [2]; manganese ion 0.003 M): 0.030 M
O.D. (X - B) (L-arabinose isomerase [2]; manganese ion 0.003 M): 0.6441
D-TAGATOSE (L-arabinose isomerase [2]; manganese ion 0.005 M): 0.031 M
O.D. (X - B) (L-arabinose isomerase [2]; manganese ion 0.005 M): 0.6815
D-TAGATOSE (L-arabinose isomerase [2]; manganese ion 0.007 M): 0.031 M
O.D. (X - B) (L-arabinose isomerase [2]; manganese ion 0.007 M): 0.6678
D-TAGATOSE (L-arabinose isomerase [2]; manganese ion 0.009 M): 0.030 M
O.D. (X - B) (L-arabinose isomerase [2]; manganese ion 0.009 M): 0.6591
D-TAGATOSE (L-arabinose isomerase [2]; manganese ion 0.011 M): 0.032 M
O.D. (X - B) (L-arabinose isomerase [2]; manganese ion 0.011 M): 0.7007
D-TAGATOSE (L-arabinose isomerase [2]; manganese ion 0.013 M): 0.032 M
O.D. (X - B) (L-arabinose isomerase [2]; manganese ion 0.013 M): 0.6851
D-TAGATOSE (L-arabinose isomerase [3]; 0.005 M metallic ion): 0.044 M
O.D. (X - B) (L-arabinose isomerase [3]; [8]): 0.9574
D-TAGATOSE (L-arabinose isomerase [3]; manganese ion 0.001 M): 0.041 M
O.D. (X - B) (L-arabinose isomerase [3]; manganese ion 0.001 M): 0.8919
D-TAGATOSE (L-arabinose isomerase [3]; manganese ion 0.003 M): 0.035 M
O.D. (X - B) (L-arabinose isomerase [3]; manganese ion 0.003 M): 0.7600
D-TAGATOSE (L-arabinose isomerase [3]; manganese ion 0.005 M): 0.040 M
O.D. (X - B) (L-arabinose isomerase [3]; manganese ion 0.005 M): 0.8848
D-TAGATOSE (L-arabinose isomerase [3]; manganese ion 0.007 M): 0.042 M
O.D. (X - B) (L-arabinose isomerase [3]; manganese ion 0.007 M): 0.9057
D-TAGATOSE (L-arabinose isomerase [3]; manganese ion 0.009 M): 0.051 M
O.D. (X - B) (L-arabinose isomerase [3]; manganese ion 0.009 M): 1.1175
D-TAGATOSE (L-arabinose isomerase [3]; manganese ion 0.011 M): 0.043 M
O.D. (X - B) (L-arabinose isomerase [3]; manganese ion 0.011 M): 0.9333
D-TAGATOSE (L-arabinose isomerase [3]; manganese ion 0.013 M): 0.049 M
O.D. (X - B) (L-arabinose isomerase [3]; manganese ion 0.013 M): 1.0753

[Zn+2] [Zinc]
% Activity with activator (None = 100) (L-arabinose isomerase [1]): 110%
D-TAGATOSE (L-arabinose isomerase [2]; 0.005 M metallic ion): 0.007 M
O.D. (X - B) (L-arabinose isomerase [2]; [8]): 0.1596
D-TAGATOSE (L-arabinose isomerase [3]; 0.005 M metallic ion): 0.012 M
O.D. (X - B) (L-arabinose isomerase [3]; [8]): 0.2544
